For 19 compounds, CC50, IC50 and selectivity ratio results are on record in ChEMBL document CHEMBL4373726, “Novel amides modified rupestonic acid derivatives as anti-influenza virus reagents” (Bioorg Med Chem Lett, 2019).

Data set [1] can be described thus: Cytotoxicity against MDCK cells assessed as reduction in cell viability incubated for 48 hrs. Particulars: dog, read-out: TC50. Type of data set: cell-based, Canis lupus familiaris.
A further data set has as its system Influenza A virus. In words: Antiviral activity against Influenza A virus H1N1 infected in dog MDCK cells assessed as inhibition in virus-induced cytopathic effect incubated for 40 hrs. The format is functional, organism-based. (In general: Protection from cytopathic effect is a common read-out in antiviral testing.)
The nature of data set [2]: Selectivity index, ratio of TC50 for cytotoxicity against dog MDCK cells to IC50 for antiviral activity against Influenza A virus H1N1 infected in dog MDCK cells. The format is toxicity, cell-based. The note with it: read-out: Selectivity Index.
The subject of a further data set is Influenza A virus H3N2. Briefly: Antiviral activity against Influenza A virus H3N2 infected in dog MDCK cells assessed as inhibition in virus-induced cytopathic effect incubated for 40 hrs. The format is functional, organism-based.
The next data set deals with Influenza B virus. Briefly: Antiviral activity against Influenza B virus infected in MDCK cells assessed as inhibition in virus-induced cytopathic effect incubated for 40 hrs. Type of data set: functional, organism-based.
Data set [3] in a line: Selectivity index, ratio of TC50 for cytotoxicity against dog MDCK cells to IC50 for antiviral activity against Influenza A virus H3N2 infected in dog MDCK cells. The format is toxicity, cell-based. The note with it: read-out: Selectivity Index.
Data set [4] can be described thus: Selectivity index, ratio of TC50 for cytotoxicity against dog MDCK cells to IC50 for antiviral activity against Influenza B virus infected in dog MDCK cells. Particulars: read-out: Selectivity Index. The format is toxicity, cell-based.

SMILES strings stand for the structures.

Usually IC50 stands for the concentration needed to halve the response being measured. For the compound `C=C(C(=O)OC)[C@@H]1CC[C@H](C)[C@H]2C(=C(C)C(=O)[C@H]2NC(=O)CNC(=O)c2ccccc2)C1`, in data set [1], the CC50 at 48 h stood at 488 µM. Moreover, the IC50 in the data set on Influenza A virus was 101 µM; in the data set on Influenza A virus H3N2, > 114 µM; in the data set with Influenza B virus, > 114 µM. Besides, the selectivity ratio in data set [2] amounted to 4.9.
With `C=C(C(=O)OC)[C@@H]1CC[C@H](C)[C@H]2C(=C(C)C(=O)[C@H]2NC(=O)C(C)CCl)C1` (some centres not stated), the CC50 at 48 h in data set [1] amounted to 735 µM. The figures for the IC50 in the data set on Influenza A virus, in the data set with Influenza A virus H3N2 and in the data set with Influenza B virus were > 422 µM, 422 µM and > 422 µM, respectively. Besides, the selectivity ratio in data set [3] worked out at 1.7.
For the compound `C=C(C(=O)Nc1cccc(B(O)O)c1)[C@@H]1CC[C@H](C)[C@@H]2CC(=O)C(C)=C2C1`, the CC50 at 48 h in data set [1] stood at 632 µM. In addition, the IC50 in the data set on Influenza A virus worked out at 129 µM; with Influenza A virus H3N2 it was 146 µM; in the data set with Influenza B virus, 147 µM. For the same compound, the selectivity ratio in data set [2] is 4.9; in data set [3], 5.3; in data set [4] it was 4.3.
As to `NC(=O)c1ncn([C@@H]2O[C@H](CO)[C@@H](O)[C@H]2O)n1` [RIBAVIRIN], the IC50 with Influenza A virus is 8.5 µM; in the data set with Influenza A virus H3N2 it was 10.6 µM; with Influenza B virus, 8 µM. In addition, the selectivity ratio in data set [2] stood at 363; in data set [3], 476; in data set [4], 714.
As to `C=C(C(=O)OC)[C@@H]1CC[C@H](C)[C@H]2C(=C(C)C(=O)[C@H]2NS(=O)(=O)c2ccc(C)cc2)C1`, the CC50 at 48 h in data set [1] came to 61.1 µM. For the same compound, the IC50 was 14.5 µM with Influenza A virus, > 14.9 µM in the data set on Influenza A virus H3N2 and 14.1 µM in the data set on Influenza B virus. For the same compound, the selectivity ratio in data set [2] and in data set [4] was 4.3 in each case.
For the compound `C=C(C(=O)OC)[C@@H]1CC[C@H](C)[C@H]2C(=C(C)C(=O)[C@H]2NC(=O)c2ccc(B(O)O)cc2)C1`, the CC50 at 48 h in data set [1] is 188 µM. For the same compound, the concentration for half-maximal inhibition (IC50) with Influenza A virus is 44.6 µM; in the data set with Influenza A virus H3N2 it was > 44.5 µM; in the data set with Influenza B virus it was > 44.2 µM. Besides, the selectivity ratio in data set [2] is 4.3.
With `C=C(C(=O)OC)[C@@H]1CC[C@H](C)[C@H]2C(=C(C)C(=O)[C@H]2NS(=O)(=O)c2ccc(F)cc2)C1`, the CC50 at 48 h in data set [1] was found to be 25.1 µM. In addition, the IC50 amounted to 8.1 µM with Influenza A virus, 10.2 µM in the data set on Influenza A virus H3N2 and 14.7 µM in the data set with Influenza B virus. Besides, the values for the selectivity ratio in data set [2], in data set [3] and in data set [4] were 3, 2.5 and 1.7, respectively.
`C=C(C(=O)Nc1ncc(B(O)O)cn1)[C@@H]1CC[C@H](C)[C@@H]2CC(=O)C(C)=C2C1`: in data set [1], the CC50 at 48 h worked out at 315 µM. Also, the IC50 was determined as 96 µM in the data set with Influenza A virus, 87.4 µM in the data set on Influenza A virus H3N2 and 135 µM in the data set on Influenza B virus. In addition, the selectivity ratio in data set [2] was 3.3; in data set [3], 3.6; in data set [4] it was 2.4.
With `C=C(C(=O)OC)[C@@H]1CC[C@H](C)[C@@H]2CC(=O)C(C)=C2C1`, the IC50 is 72.7 µM in the data set on Influenza A virus, > 71.8 µM in the data set on Influenza A virus H3N2 and > 71.1 µM in the data set with Influenza B virus. Moreover, the selectivity ratio in data set [2] was determined as 3.
On to `C=C(C(=O)Nc1ccc(B(O)O)cc1)[C@@H]1CC[C@H](C)[C@@H]2CC(=O)C(C)=C2C1`, for which, in data set [1], the CC50 at 48 h came to 939 µM. In addition, the values for the IC50 in the data set with Influenza A virus, in the data set with Influenza A virus H3N2 and in the data set with Influenza B virus were > 452 µM, > 452 µM and > 451 µM, respectively.
Take `C=C(C(=O)OC)[C@@H]1CC[C@H](C)[C@H]2C(=C(C)C(=O)[C@H]2NC(C)=O)C1`: in data set [1], the CC50 at 48 h came out at 753 µM. The IC50 in the data set with Influenza A virus is 174 µM; in the data set with Influenza A virus H3N2 it was > 175 µM; with Influenza B virus it was 522 µM. For the same compound, the selectivity ratio in data set [2] was 4.9; in data set [4], 1.7.
As to `C=C(C(=O)NCc1ccc(B(O)O)cc1)[C@@H]1CC[C@H](C)[C@@H]2CC(=O)C(C)=C2C1`, in data set [1], the CC50 at 48 h was 262 µM. The results for the IC50 in the data set on Influenza A virus, in the data set with Influenza A virus H3N2 and with Influenza B virus were 85.4 µM, 65.9 µM and 80 µM, respectively. Moreover, the selectivity ratio in data set [2] amounted to 3.3; in data set [3] it was 4; in data set [4], 3.3.
Regarding `C=C(C(=O)NCc1cccc(B(O)O)c1)[C@@H]1CC[C@H](C)[C@@H]2CC(=O)C(C)=C2C1`, the CC50 at 48 h in data set [1] stood at 252 µM. For the same compound, the results for the IC50 with Influenza A virus, with Influenza A virus H3N2 and in the data set with Influenza B virus were 43.3 µM, 63.5 µM and 90.3 µM, respectively. Also, the selectivity ratio in data set [2] worked out at 6; in data set [3], 4; in data set [4], 2.8.
In the case of `C=C(C(=O)OC)[C@@H]1CC[C@H](C)[C@H]2C(=C(C)C(=O)[C@H]2NC(=O)c2ccccc2)C1`, the CC50 at 48 h in data set [1] was found to be 84.3 µM. The IC50 in the data set on Influenza A virus was 38.4 µM; in the data set with Influenza A virus H3N2 it was > 16.5 µM; in the data set with Influenza B virus, 43.8 µM. Further, the selectivity ratio in data set [2] stood at 2.2; in data set [4], 1.9.
Consider `C=C(C(=O)Nc1ccc2c(c1)COB2O)[C@@H]1CC[C@H](C)[C@@H]2CC(=O)C(C)=C2C1`, for which the CC50 at 48 h in data set [1] came to 254 µM. Besides, the IC50 in the data set with Influenza A virus, in the data set with Influenza A virus H3N2 and with Influenza B virus was > 49.1 µM throughout.
Take `C=C(C(=O)OC)[C@@H]1CC[C@H](C)[C@H]2C(=C(C)C(=O)[C@H]2NC(=O)CC#N)C1`: the CC50 at 48 h in data set [1] worked out at 1450 µM. The figures for the IC50 with Influenza A virus, with Influenza A virus H3N2 and with Influenza B virus were 485 µM, > 485 µM and 484 µM, respectively. In addition, the selectivity ratio in data set [2] and in data set [4] was 3 throughout.
In the case of `CCOC(=O)C1=C[C@@H](OC(CC)CC)[C@H](NC(C)=O)[C@@H](N)C1` [OSELTAMIVIR], the CC50 at 48 h in data set [1] was 1410 µM. The IC50 in the data set with Influenza A virus is 15.6 µM; in the data set with Influenza A virus H3N2, 11.3 µM; in the data set with Influenza B virus, > 488 µM. For the same compound, the selectivity ratio in data set [3] was determined as 132.
For `C=C(C(=O)O)[C@@H]1CC[C@H](C)[C@@H]2CC(=O)C(C)=C2C1` [PECHUELOIC ACID], the selectivity ratio worked out at 4.3 in data set [2], 4.3 in data set [3] and 10 in data set [4].
In the case of `C=C(C(=O)OC)[C@@H]1CC[C@H](C)[C@H]2C(=C(C)C(=O)[C@H]2NS(C)(=O)=O)C1`, the CC50 at 48 h in data set [1] amounted to 226 µM. Further, the IC50 in the data set on Influenza A virus stood at 40.5 µM; with Influenza A virus H3N2 it was 52.4 µM; in the data set on Influenza B virus it was 40.3 µM. Also, the selectivity ratio came to 5.6 in data set [2], 4.3 in data set [3] and 5.6 in data set [4].
